Earlier results in patent US20070293674A1, “Novel Saperconazole Crystalline Forms and Related Processes, Pharmaceutical Compositions and Methods” (TRANSFORM PHARMACEUTICALS, INC., priority 2004, published 2007).

Columns and labels:
[1] = piperazine of itraconazole
[2] = free base

CCC(C)n1ncn(-c2ccc(N3CCN(c4ccc(OC[C@H]5CO[C@](Cn6cncn6)(c6ccc(Cl)cc6Cl)O5)cc4)CC3)cc2)c1=O (mixture of isomers) [itraconazole, 4-[4-[4-[4-[[2-(2,4-dichlorophenyl)-2-(1H-1,2,4-triazol-1-ylmethyl)-1,3-dioxolan-4-yl]methoxy]phenyl]-1-piperazinyl]phenyl]-2,4-dihydro-2-(1-methylpropyl)-3H-1,2,4-triazol-3-one]
pKa value for the piperazine [1]: 3.7
solubility in water [2]: only very sparingly soluble in water
